Four compounds from patent publication US4833241A, “Anthracycline compound” (Kirin Beer Kabushiki Kaisha, priority 1986, dated 1989) can be followed below.

In one series the test system is P388 leukemia. Description: Antitumor activity in CDF1 mice with intraperitoneally transplanted P388 leukemia, i.v. administration, 30-day survival. Type of series: in vivo. To be noted: for Increase in life span T/C (%): days 1 and 5, saline control = 100%; for ED (T/C 130%): Mus musculus, 720 h.
A short description of the next series: in vivo. To be noted: mouse, iv.
Series [1] in a line: Stability of M-R20X3 during measurements (1) through (4). It is filed as physicochemical.

SMILES strings stand for the structures. Like-named read-outs stand apart in the source and are kept apart here.

`COc1cccc2c1C(=O)c1c(O)c3c(c(O)c1C2=O)C[C@@](O)(C(=O)CO)C[C@@H]3O[C@H]1C[C@H](N)[C@H](O)[C@H](C)O1` [Adriamycin, reference compound]: the “Increase in life span T/C (%)” value in the series on P388 leukemia (1 mg/kg/day i.v.) is reported as 103%; in the series on P388 leukemia (2 mg/kg/day i.v.), 119%; in the series on P388 leukemia (4 mg/kg/day i.v.), 133%; in the series with P388 leukemia (8 mg/kg/day i.v.), 165%; in the series on P388 leukemia (12 mg/kg/day i.v.) it was 244%.

As to `CC[C@]1(O)Cc2c(O)c3c(c(O)c2[C@@H](O[C@H]2C[C@H](N4CCOCC4)[C@H](O)[C@H](C)O2)C1)C(=O)c1c(O)cccc1C3=O` [M-R20X, 3'-deamino-3'-(4-morpholinyl)-13-deoxocarminomycin], the ED (T/C 130%) in the series on P388 leukemia (iv, i.v., P388 leukemia in CDF1 mice, read-out: Dose for T/C = 130%) came to 2.5 mg/kg/day. The same compound came in with an LD50 in the series “in vivo” of 12.3 mg/kg.

Regarding `CC[C@@]1(O)C[C@H](O[C@H]2C[C@H](N3CCOCC3)[C@H](O)[C@H](C)O2)c2c(O)c3c(c(O)c2C1O)C(=O)c1cccc(O)c1C3=O` (some centres unmarked) [M-R20X2, 3'-deamino-3'-(4-morpholinyl)-13-deoxo-10-hydroxycarminomycin], the ED (T/C 130%) in the series on P388 leukemia (P388, iv, read-out: Dose for T/C = 130% (mg/kg/day)) is 0.43 mg/kg/day. For the same compound, the Therapeutic index with P388 leukemia (mouse, in vivo, iv) is listed as 4.7. Besides, the “Solubility (soluble in)” value (acidic water, basic water, methanol, ethanol, propanol, acetone, ethyl acetate, and chloroform) was “Soluble”. In addition, for the setting “water, hexane, cyclohexane, diethyl ether, and petroleum ether”, the “Solubility (insoluble in)” value was “Insoluble”. In addition, in “in vivo”, the LD50 was determined as 3.55 mg/kg.

Turning to `CC[C@@]1(O)C[C@H](O[C@H]2C[C@H](N3CCOCC3)[C@H](O)[C@H](C)O2)c2c(O)c3c(c(O)c2[C@H]1C(=O)O)C(=O)c1cccc(O)c1C3=O` [M-R20X3, 3'-deamino-3'-(4-morpholinyl)-13-deoxo-10-hydroxycarbonylcarminomycin], the “Stability (lability)” value in series [1] was “extremely labile”. In addition, the “Decomposition after completion of the measurements” value in series [1] (measurements (1) through (4) carried out quickly) is “no decomposition was observed”.
